In US12371460B2, “Glycan-binding proteins and related compositions and methods” (priority 2019, dated 2025):

Molecular target: Sulfolobus solfataricus Sso7d (rcSso7d, SEQ ID NO: 1) variant clone E, SEQ ID NO: 398 (Saccharolobus solfataricus, UniProt P61991, A45G/K22H/K28Q/K40A/K7T/K9Q/M29W/R43W/S31W/T33I/T41K/V26W/W24R)
Test: biolayer interferometry, clone E immobilized on Ni-NTA tip
Format: binding
Conditions: 1 uM solution of the sugar; FIG. 2E
Source text: The traces show an increase in nm as sugar starts binding to protein on the tip, then a decrease in nm as the tip is moved from the sugar solution to buffer only.

Sulfolobus solfataricus Sso7d (rcSso7d, SEQ ID NO: 1) variant clone E, SEQ ID NO: 398, sequence (P61991 other isoform, or with tags, fused parts or gaps with the stated changes): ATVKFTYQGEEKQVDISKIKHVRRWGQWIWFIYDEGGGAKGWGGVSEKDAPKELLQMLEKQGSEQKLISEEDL

CC(=O)N[C@@H]1[C@@H](O[C@@H]2O[C@H](CO)[C@H](O)[C@H](O)[C@H]2O)[C@@H](O)[C@@H](CO)O[C@@H]1O [TF antigen, Galβ1-3GalNAcα]
binding (biolayer interferometry traces): bound
